“Also recorded” adds a separate entry of the source.
Columns and labels:
Assay type in all cases: cell-based
[1] = test system: porcine aortic endothelial cells; experiment: Atomic force microscopy cell stiffness (elastic modulus), cytochalasin D treatment; details: 200 nM cytochalasin D for 15 minutes
Experimental: (§1) Cells were released from tissue culture dishes with trypsin, seeded onto micropatterned PA gels, and 30 minutes was allowed for the cells to attach to the microspots 8. The medium was replaced and the PA gel was washed to remove unattached cells. Cells were then incubated on the micropatterned PA gels for 16-24 hours prior to taking measurements. Before the measurements, the cells were transferred into serum-free CO2-independent medium (Invitrogen™). In some samples, the actin cytoskeleton was disrupted with 200 nM cytochalasin D (Sigma Aldrich) for 15 minutes at room temperature in serum-free CO2-independent medium.
Atomic force microscopy (AFM, Bioscope DAFM-2X, Veeco) was used to validate DEP device 100 cell stiffness measurements (elastic modulus). A silicon nitride cantilever with 1 μm spherical tip (196 μm long, 23 μm wide, 600 nm thick, spring constant 0.06 N/m, Novascan) was used to indent each measured cell at three distinct locations. […] At least six cells for each cell condition or cell type were measured.
(§2) Adhered porcine aortic endothelial cells were treated with cytochalasin D to determine the stiffness changes induced by cytochalasin D using the DEP device 100 of the present invention. […] The calculated cell elastic modulus in cytochalasin treated cells was about 0.3 kPa, while the cell elastic modulus in the untreated cells was calculated to be about […] (FIG. 10C).

[2] = test system: porcine aortic endothelial cells; experiment: DEP device cell deformation (centroid movement) of adhered cells
Experimental: as §1
A micropatterned single cell array adhered to a PA gel was mounted on an inverted Olympus IX81 fluorescent microscope. The quadrupole DEP device 100 was attached to a micromanipulator (Eppendorf), and the electrodes were centered and lowered over a single adhered cell within approximately ˜10 μm of the cell. Electrical potential was applied using a function generator (BK Precision 3011B) set to 20 Vpp, 1 MHz. The positive function generator lead was diverted into two separate lines, each going to a resistance decade box, before connecting to diagonally opposing device electrodes as in FIG. 2D. With no extra resistance applied, both electrodes received the same voltage. Increasing resistance to one electrode decreased voltage to that electrode and therefore changed the magnitude of the DEP force as well as the force direction. […]
Bright-field images were taken every 0.5 seconds throughout each measurement. […] Cell deformation was quantified by measuring the distance between cell body centroid and the lower left corner of the cropped image. […]
as §2

Endothelial cells = experiment: Atomic force microscopy cell stiffness (elastic modulus) after TNF-α treatment; details: cells on 55 kPa micropatterned PA gels
Text: Atomic force microscopy (AFM, Bioscope DAFM-2X, Veeco) was used to validate DEP device 100 cell stiffness measurements (elastic modulus). A silicon nitride cantilever with 1 μm spherical tip (196 μm long, 23 μm wide, 600 nm thick, spring constant 0.06 N/m, Novascan) was used to indent each measured cell at three distinct locations. Elastic modulus was estimated by fitting the first 200 nm of the indentation curves to a Hertz model (Solon et al., “Fibroblast adaptation and stiffness matching to soft elastic substrates,” Biophys. J., vol. […], pages 4453-4461, 2007). Three measurements per cell were averaged and defined as the cell stiffness. At least six cells for each cell condition or cell type were measured.
Endothelial cells were cultured for 24 hours on micropatterned PA gels with stiffness of 55 kPa using 25 μm fibronectin circles as the microspots 8 to allow focal adhesion formation. The micropatterned PA gel was used in a DEP device 100 of the present invention provided with a microfluidic chamber 14. The quadrupole electrodes 4 were lowered with a single cell aligned within the cage of each quadrupole electrode 4. TNF-α was introduced to the microfluidic chamber 14 to expose the cells thereto. Cell stiffness or cell elastic modulus of the endothelial cell after TNF-α treatment was measured using AFM.

Molecule | calculated cell elastic modulus (AFM) [1] | cell stiffness / cell modulus (AFM), change compared with untreated cells [1] | cell centroid movement / deformation under dielectrophoretic force ([2]; 200 nM cytochalasin D for 15 minutes, compared with untreated adhered cells under the same DEP force) | cell centroid restoration to the center position ([2]; 200 nM cytochalasin D for 15 minutes, compared with untreated cells) | cell stiffness (DEP device) ([2]; cytochalasin D treatment, three different DEP forces) | endothelial cell stiffness / elastic modulus (AFM), change compared with untreated cells (Endothelial cells)
C=C1[C@@H](C)[C@H]2[C@H](Cc3ccccc3)NC(=O)[C@]23[C@H](OC(C)=O)/C=C/[C@@](C)(O)C(=O)[C@@H](C)C/C=C/[C@H]3[C@@H]1O [cytochalasin D] | about 0.3 kPa | decreased the stiffness; also recorded: lower | Untreated endothelial cells showed centroid deformations consistently smaller than treated endothelia cells; also recorded: increased | slower | decreases cell stiffness | –
TNF-α | – | – | – | – | – | Increased; also recorded: higher

— patent US20150285760A1, “DIELECTROPHORETIC DEVICE FOR ANALYSIS OF CELL MECHANICS” (DREXEL UNIVERSITY, priority 2014, published 2015)
